Test results as given in the supplement of paper PMC10307832.

The cell lines below were run with Cc1nc(C(=O)NCC(=O)O)c(O)c2ccc(Oc3ccccc3)cc12 [FG-4592] + N=C(N)NC(=N)NCCc1ccccc1 [Phenformin] (partner 250 µM) (assay: relative viability (nuclei count vs DMSO), 5 days (fraction); higher = more cells survive). Settings: first compound 0.08 µM.
How it was run: (§1)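 Nuclei were stained with Hoechst during a one-step fixation (final 0.05% Triton X-100, 1% formaldehyde, 1 ug/ml Hoechst) carried out 5 days after dosing, then counted on 4× images. The cells, lung cancer lines in 1536-well plates, had been dosed by pin tool the day after seeding with one drug alone or a fixed anchor-drug dose plus five library-drug doses (not always all listed) in √10 steps. Relative viability is the nuclei count in treated wells divided by that in vehicle wells, and each value is the median of duplicate plates.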

Cell Line	relative viability
NCI-H2023	0.427
HCC-15	0.524
NCI-H1793	0.357
PC-14	0.628
EKVX	0.205
LC-2-ad	0.571
NCI-H1944	0.194
NCI-H1975	0.384
RERF-LC-KJ	0.378
ABC-1	0.232
NCI-H358	0.361
NCI-H650	0.393
PC-3 [JPC-3]	0.489

Same assay, conditions: first compound 0.253 µM

Cell Line	relative viability
NCI-H2023	0.38
HCC-15	0.424
NCI-H1793	0.273
PC-14	0.505
EKVX	0.237
LC-2-ad	0.541
NCI-H1944	0.187
NCI-H1975	0.399
RERF-LC-KJ	0.324
ABC-1	0.201
NCI-H358	0.293
NCI-H650	0.445
PC-3 [JPC-3]	0.457

Same assay, conditions: first compound 0.8 µM

Cell Line	relative viability
NCI-H2023	0.437
HCC-15	0.533
PC-14	0.411
EKVX	0.224
NCI-H1944	0.185
NCI-H1975	0.369
RERF-LC-KJ	0.418
ABC-1	0.211
NCI-H358	0.372
NCI-H650	0.406
PC-3 [JPC-3]	0.531

Same assay, conditions: first compound 2.53 µM

Cell Line	relative viability
NCI-H2023	0.442
HCC-15	0.462
NCI-H1793	0.307
PC-14	0.667
EKVX	0.221
LC-2-ad	0.527
NCI-H1944	0.18
NCI-H1975	0.384
RERF-LC-KJ	0.538
ABC-1	0.258
NCI-H358	0.324
NCI-H650	0.49
PC-3 [JPC-3]	0.462

Same assay, conditions: first compound 8 µM

Cell Line	relative viability
NCI-H2023	0.379
HCC-15	0.503
NCI-H1793	0.36
PC-14	0.558
EKVX	0.262
LC-2-ad	0.658
NCI-H1944	0.2
NCI-H1975	0.396
RERF-LC-KJ	0.481
ABC-1	0.254
NCI-H358	0.5
NCI-H650	0.437
PC-3 [JPC-3]	0.486

These cell lines were tested with CC1=CC(=C(N1C2=CC=C(C=C2)Cl)C)C(=O)CN3CCCCC3 [IU1-47] + COc1cccc2cc(-c3nc([C@H]4CC[C@H](C(=O)O)CC4)n4ncnc(N)c34)[nH]c12 [OSI-027] (partner 0.5 µM) in the same assay as above. Settings: first compound 0.08 µM.
How it was run: as §1

Cell Line	relative viability
NCI-H2023	0.375
HCC-15	0.709
NCI-H1793	0.245
PC-14	0.881
EKVX	0.858
LC-2-ad	0.86
NCI-H1944	0.401
NCI-H1975	0.69
RERF-LC-KJ	0.596
ABC-1	0.462
NCI-H358	0.889
NCI-H650	0.507
PC-3 [JPC-3]	0.796

Same assay, conditions: first compound 0.253 µM

Cell Line	relative viability
NCI-H2023	0.391
HCC-15	0.722
NCI-H1793	0.25
PC-14	0.925
EKVX	0.862
LC-2-ad	0.81
NCI-H1944	0.357
NCI-H1975	0.817
RERF-LC-KJ	0.586
ABC-1	0.504
NCI-H358	1.15
NCI-H650	0.55
PC-3 [JPC-3]	0.874

Same assay, conditions: first compound 0.8 µM

Cell Line	relative viability
NCI-H2023	0.436
HCC-15	0.685
NCI-H1793	0.37
PC-14	1.11
EKVX	0.726
LC-2-ad	0.75
NCI-H1944	0.411
NCI-H1975	0.779
RERF-LC-KJ	0.565
ABC-1	0.43
NCI-H358	1.04
NCI-H650	0.487
PC-3 [JPC-3]	0.716

Same assay, conditions: first compound 2.53 µM

Cell Line	relative viability
NCI-H2023	0.259
HCC-15	0.388
PC-14	0.302
EKVX	0.658
LC-2-ad	0.546
NCI-H1944	0.444
NCI-H1975	0.94
RERF-LC-KJ	0.36
NCI-H358	0.676
NCI-H650	0.482
PC-3 [JPC-3]	0.705

Same assay, conditions: first compound 8 µM

Cell Line	relative viability
NCI-H2023	0.352
HCC-15	0.616
NCI-H1793	0.286
PC-14	0.847
EKVX	0.828
LC-2-ad	0.787
NCI-H1944	0.376
NCI-H1975	0.531
RERF-LC-KJ	0.567
ABC-1	0.379
NCI-H358	0.82
NCI-H650	0.441
PC-3 [JPC-3]	0.555

Each cell line was assayed with CC1=CC(=C(N1C2=CC=C(C=C2)Cl)C)C(=O)CN3CCCCC3 [IU1-47] + CC(=O)c1c(C)c2cnc(Nc3ccc(N4CCNCC4)cn3)nc2n(C2CCCC2)c1=O [Palbociclib] (partner 0.5 µM) in the same assay as above. Settings: first compound 0.08 µM.
How it was run: as §1

Cell Line	relative viability
NCI-H2023	0.464
HCC-15	0.795
NCI-H1793	0.306
PC-14	0.547
EKVX	0.391
LC-2-ad	0.498
NCI-H1944	0.342
NCI-H1975	0.586
RERF-LC-KJ	1.32
ABC-1	0.763
NCI-H358	0.131
NCI-H650	0.361
PC-3 [JPC-3]	0.562

Same assay, conditions: first compound 0.253 µM

Cell Line	relative viability
NCI-H2023	0.45
HCC-15	0.765
PC-14	0.69
EKVX	0.397
LC-2-ad	0.509
NCI-H1944	0.376
NCI-H1975	0.547
RERF-LC-KJ	1.18
ABC-1	0.921
NCI-H358	0.165
NCI-H650	0.332
PC-3 [JPC-3]	0.531

Same assay, conditions: first compound 0.8 µM

Cell Line	relative viability
NCI-H2023	0.421
HCC-15	0.82
NCI-H1793	0.317
PC-14	0.635
EKVX	0.419
LC-2-ad	0.484
NCI-H1944	0.345
NCI-H1975	0.868
RERF-LC-KJ	1.04
ABC-1	0.65
NCI-H358	0.149
NCI-H650	0.312
PC-3 [JPC-3]	0.602

Same assay, conditions: first compound 2.53 µM

Cell Line	relative viability
NCI-H2023	0.47
HCC-15	0.595
NCI-H1793	0.359
PC-14	0.675
NCI-H1944	0.291
NCI-H1975	0.611
RERF-LC-KJ	1.16
NCI-H358	0.112
NCI-H650	0.373
PC-3 [JPC-3]	0.546

Same assay, conditions: first compound 8 µM

Cell Line	relative viability
NCI-H2023	0.344
HCC-15	0.703
NCI-H1793	0.276
PC-14	0.419
EKVX	0.347
LC-2-ad	0.488
NCI-H1944	0.33
NCI-H1975	0.364
RERF-LC-KJ	1.07
ABC-1	0.582
NCI-H358	0.141
NCI-H650	0.288
PC-3 [JPC-3]	0.559

The cell lines below were run with CC1=CC(=C(N1C2=CC=C(C=C2)Cl)C)C(=O)CN3CCCCC3 [IU1-47] + N=C(N)NC(=N)NCCc1ccccc1 [Phenformin] (partner 250 µM) in the same assay as above. Settings: first compound 0.08 µM.
How it was run: as §1

Cell Line	relative viability
NCI-H2023	0.459
HCC-15	0.482
NCI-H1793	0.419
PC-14	0.686
EKVX	0.24
LC-2-ad	0.616
NCI-H1944	0.2
NCI-H1975	0.411
RERF-LC-KJ	0.415
ABC-1	0.212
NCI-H358	0.328
NCI-H650	0.489
PC-3 [JPC-3]	0.498

Same assay, conditions: first compound 0.253 µM

Cell Line	relative viability
NCI-H2023	0.387
HCC-15	0.497
NCI-H1793	0.259
PC-14	0.611
EKVX	0.262
LC-2-ad	0.607
NCI-H1944	0.192
NCI-H1975	0.411
RERF-LC-KJ	0.423
ABC-1	0.234
NCI-H358	0.323
NCI-H650	0.483
PC-3 [JPC-3]	0.463

Same assay, conditions: first compound 0.8 µM

Cell Line	relative viability
NCI-H2023	0.411
HCC-15	0.557
NCI-H1793	0.475
PC-14	0.633
EKVX	0.263
LC-2-ad	0.577
NCI-H1944	0.199
NCI-H1975	0.409
RERF-LC-KJ	0.421
ABC-1	0.202
NCI-H358	0.339
NCI-H650	0.466
PC-3 [JPC-3]	0.44

Same assay, conditions: first compound 2.53 µM

Cell Line	relative viability
NCI-H2023	0.472
HCC-15	0.491
PC-14	0.664
EKVX	0.259
LC-2-ad	0.558
NCI-H1944	0.216
NCI-H1975	0.419
RERF-LC-KJ	0.493
NCI-H358	0.307
NCI-H650	0.491
PC-3 [JPC-3]	0.496

Same assay, conditions: first compound 8 µM

Cell Line	relative viability
NCI-H2023	0.378
HCC-15	0.432
NCI-H1793	0.352
PC-14	0.406
EKVX	0.252
LC-2-ad	0.57
NCI-H1944	0.168
NCI-H1975	0.384
RERF-LC-KJ	0.411
ABC-1	0.247
NCI-H358	0.274
NCI-H650	0.476
PC-3 [JPC-3]	0.429
